Here are results for 24 compounds from patent US7238830B2, “N-alkylaspartyl dipeptide ester compounds” (Ajinomoto Co., Inc., priority 1998, dated 2007).

Where two headings read alike, the source gives them in different places.

Experiment [1] in a line: Sensory evaluation of sweetness (sweetening potency) relative to sucrose. To be noted: for Sweetness (sweetening potency): sensory evaluation; for sweetness potency: values compared to sweetening potency of a 4% aqueous solution of sucrose. The text has this: For example, the sweetness of N-[N-[3-(3-hydroxy-4-methoxyphenyl)-3-methylbutyl]-L-α-aspartyl]-L-phenylalanine 1-methyl ester was approximately 70000 times that of sugar, the sweetness of N-[N-[3-(3-methyl-4 hydroxyphenyl)-3-methylbutyl]-L-α-aspartyl]-L-phenylalanine 1-methyl ester was approximately 70000 times that of sugar, the sweetness of N-[N-[3-(3-hydroxy-4-methylphenyl)-3-methylbutyl]-L-α- aspartyl]-L-phenylalanine 1-methyl ester was approximately 60000 times that of sugar, and the sweetness of N-[N-((RS)-3-(3 hydroxy-4-methoxyphenyl) butyl]-L-α-aspartyl]-L-phenylalanine 1-methyl ester was approximately 50000 times that of sugar. […] Sensory evaluations can be performed as described in, for example, B. T. Carr, S. D. Pecore, K. M. Gibes and G. E. Dubois, “Sensory Methods for Sweetner Evaluation” in Flavor Measurement, edited by C. T. Ho and C. H. Manley, Marcel Decker, Inc. (1992).

The conditions of experiment [2]: reported in WO 94/11391, compared to 2%, 5% and 10% sucrose solutions, cited from earlier work.

As to `COC(=O)[C@H](Cc1ccccc1)NC(=O)[C@H](CC(=O)O)NCCC(C)(C)c1ccc(OC)c(O)c1`, the “Sweetness (sweetening potency)” value in experiment [1] is given as “approximately 70000 times the sweetness of sugar”.

`COC(=O)[C@H](Cc1ccccc1)NC(=O)[C@H](CC(=O)O)NCCC(C)c1ccc(OC)cc1` (mixture of isomers) [Compound 1, N-[N-[(RS)-3-(4-methoxyphenyl)butyl]-L-α-aspartyl]-L-phenylalanine 1-methyl ester]: in experiment [1], the “Sweetness (sweetening potency)” value was 16000 times the sweetness of sugar and the sweetness potency is 16000.

Regarding `COC(=O)[C@H](Cc1ccccc1)NC(=O)[C@H](CC(=O)O)NCCC(C)c1cccc(O)c1` (mixture of isomers) [Compound 2, N-[N-[(RS)-3-(3-hydroxyphenyl)butyl]-L-α-aspartyl]-L-phenylalanine 1 methyl ester], in experiment [1], the “Sweetness (sweetening potency)” value is 12000 times the sweetness of sugar and the sweetness potency was 12000.

On to `COC(=O)[C@H](Cc1ccccc1)NC(=O)[C@H](CC(=O)O)NCCC(C)c1ccc(O)c(OC)c1` (mixture of isomers) [Compound 3, N-[N-[(RS)-3-(3-methoxy-4-hydroxyphenyl)butyl]-L-α-aspartyl]-L-phenylalanine 1-methyl ester], for which, in experiment [1], the “Sweetness (sweetening potency)” value is on record as 30000 times the sweetness of sugar and the sweetness potency was found to be 30000.

Take `COC(=O)[C@H](Cc1ccccc1)NC(=O)[C@H](CC(=O)O)NCCC(C)c1ccc(OC)c(O)c1` (mixture of isomers) [Compound 4, N-[N-[(RS)-3-(3-hydroxy-4-methoxyphenyl)butyl]-L-α-aspartyl]-L-phenylalanine 1-methyl ester]: in experiment [1], the “Sweetness (sweetening potency)” value is “approximately 50000 times the sweetness of sugar” and the sweetness potency came to 50000. For the same compound, the “Sweetness (sweetening potency)” value in experiment [1] (listed as Example 17) is 50000 times the sweetness of sugar.

Regarding `COC(=O)[C@H](Cc1ccc(O)cc1)NC(=O)[C@H](CC(=O)O)NCCC(C)c1ccc(O)c(OC)c1` (mixture of isomers) [Compound 5, N-[N-[(RS)-3-(3-methoxy-4-hydroxyphenyl)butyl]-L-α-aspartyl]-L-tyrosine 1-methyl ester], in experiment [1], the “Sweetness (sweetening potency)” value is listed as 25000 times the sweetness of sugar and the sweetness potency is 25000.

For the compound `COC(=O)[C@H](CC1CCCCC1)NC(=O)[C@H](CC(=O)O)NCCC(C)c1ccc(OC)c(O)c1` (mixture of isomers) [Compound 6], in experiment [1], the “Sweetness (sweetening potency)” value is recorded as 40000 times the sweetness of sugar and the sweetness potency came out at 40000.

Regarding `COC(=O)[C@H](Cc1ccccc1)NC(=O)[C@H](CC(=O)O)NCCC(C)c1ccc(O)c(C)c1` (mixture of isomers) [Compound 11, N-[N-[(RS)-3-(3-methyl-4-hydroxyphenyl)butyl]-L-α-aspartyl]-L-phenylalanine 1-methyl ester], in experiment [1], the “Sweetness (sweetening potency)” value is on record as 50000 times the sweetness of sugar and the sweetness potency turned out to be 50000.

On to `COC(=O)[C@H](Cc1ccccc1)NC(=O)[C@H](CC(=O)O)NCC(C)Cc1ccc(OC)c(O)c1` (mixture of isomers) [Compound 12, N-[N-[3-(3-hydroxy-4-methoxyphenyl)-(RS)-2-methylpropyl)-L-α-aspartyl)-L-phenylalanine 1-methyl ester], for which, in experiment [1], the “Sweetness (sweetening potency)” value is 5000 times the sweetness of sugar and the sweetness potency is 5000.

For `COC(=O)[C@H](Cc1ccccc1)NC(=O)[C@H](CC(=O)O)NC(C)CCc1ccc(O)c(OC)c1` (mixture of isomers) [N-[N-[3-(3-methoxy-4-hydroxyphenyl)(RS)-1-methylpropyl]-L-α-aspartyl]-L-phenylalanine 1-methylester], in experiment [2], the sweetening potency is recorded as 500 times that of sucrose.

Turning to `COC(=O)[C@H](Cc1ccccc1)NC(=O)[C@H](CC(=O)O)NCCC(C)(C)c1ccc(OC)cc1` [Compound 7, N-[N-[3-(4-methoxyphenyl)-3-methylbutyl]-L-α-aspartyl)-L-phenylalanine 1-methyl ester], in experiment [1], the “Sweetness (sweetening potency)” value is 25000 times the sweetness of sugar and the sweetness potency came to 25000.

For `COC(=O)[C@H](Cc1ccccc1)NC(=O)[C@H](CC(=O)O)NCCC(C)(C)c1ccccc1O` [Compound 13, N-[N-[3-(2-hydroxyphenyl)-3-methylbutyl]-L-α-aspartyl]-L-phenylalanine 1-methyl ester], in experiment [1], the “Sweetness (sweetening potency)” value is on record as 8000 times the sweetness of sugar and the sweetness potency worked out at 8000.

Turning to `COC(=O)[C@H](Cc1ccccc1)NC(=O)[C@H](CC(=O)O)NCCC(C)(C)c1ccc(OC)cc1O` [Compound 14, N-[N-[3-(2-hydroxy-4-methoxyphenyl)-3-methylbutyl]-L-α-aspartyl]-L-phenylalanine 1-methyl ester], in experiment [1], the “Sweetness (sweetening potency)” value is 20000 times the sweetness of sugar and the sweetness potency was determined as 20000.

For the compound `COC(=O)[C@H](Cc1ccccc1)NC(=O)[C@H](CC(=O)O)NCCC(C)(C)c1ccc(C)cc1O` [Compound 15, N-[N-[3-(2-hydroxy-4-methylphenyl)-3-methylbutyl]-L-α-aspartyl]-L-phenylalanine 1-methyl ester], in experiment [1], the “Sweetness (sweetening potency)” value is 25000 times the sweetness of sugar and the sweetness potency is recorded as 25000.

In the case of `COC(=O)[C@H](Cc1ccccc1)NC(=O)[C@H](CC(=O)O)NCCC(C)(C)c1ccc2c(c1)OCO2` [Compound 16, N-[N-[3-(3,4-methylenedioxyphenyl)-3-methylbutyl]-L-α-aspartyl]-L-phenylalanine-1-methyl ester], in experiment [1], the “Sweetness (sweetening potency)” value is reported as 30000 times the sweetness of sugar and the sweetness potency is reported as 30000.

In the case of `COC(=O)[C@H](Cc1ccccc1)NC(=O)[C@H](CC(=O)O)NCCC(C)(C)c1ccc(OC)c(C)c1` [Compound 17, N-[N-[3-(3-methyl-4-methoxyphenyl)-3-methylbutyl]-L-α-aspartyl]-L-phenylalanine 1-methyl ester], in experiment [1], the “Sweetness (sweetening potency)” value is reported as 30000 times the sweetness of sugar and the sweetness potency was 30000.

For the compound `COC(=O)[C@H](Cc1ccccc1)NC(=O)[C@H](CC(=O)O)NCCC(C)(C)c1ccc(O)c(C)c1` [Compound 18, N-[N-[3-(3-methyl-4-hydroxyphenyl)-3-methylbutyl)-L-α-aspartyl]-L-phenylalanine 1-methyl ester], in experiment [1], the “Sweetness (sweetening potency)” value was “approximately 70000 times the sweetness of sugar” and the sweetness potency stood at 70000. In addition, the “Sweetness (sweetening potency)” value in experiment [1] (listed as Example 11) is on record as 70000 times the sweetness of sugar.

For the compound `COC(=O)[C@H](Cc1ccccc1)NC(=O)[C@H](CC(=O)O)NCCC(C)(C)c1ccc(C)c(O)c1` [Compound 19, N-[N-[3-(3-hydroxy-4-methylphenyl)-3-methylbutyl]-L-α-aspartyl]-L-phenylalanine 1-methyl ester], in experiment [1], the “Sweetness (sweetening potency)” value is “approximately 60000 times the sweetness of sugar” and the sweetness potency turned out to be 60000. In addition, in experiment [1] (listed as Example 22), the “Sweetness (sweetening potency)” value is listed as 60000 times the sweetness of sugar.

On to `COC(=O)[C@H](Cc1ccccc1)NC(=O)[C@H](CC(=O)O)NCCC1(c2ccc(O)c(OC)c2)CCCC1` [Compound 20, N-[N-[2-[1-(3-methoxy-4-hydroxyphenyl)cyclopentyl]ethyl]-L-α-aspartyl]-L-phenylalanine 1-methyl ester], for which, in experiment [1], the “Sweetness (sweetening potency)” value is 30000 times the sweetness of sugar and the sweetness potency was 30000.

Consider `CCOC(=O)[C@H](Cc1ccccc1)NC(=O)[C@H](CC(=O)O)NCCC(C)(C)c1ccc(OC)c(O)c1` [Compound 21, N-[N-[3-(3-hydroxy-4-methoxyphenyl)-3-methylbutyl]-L-α-aspartyl]-L-phenylalanine 1-ethyl ester], for which, in experiment [1], the “Sweetness (sweetening potency)” value is recorded as 15000 times the sweetness of sugar and the sweetness potency is given as 15000.

On to `COC(=O)[C@](C)(Cc1ccccc1)NC(=O)[C@H](CC(=O)O)NCCC(C)(C)c1ccc(OC)c(O)c1` [Compound 22], for which, in experiment [1], the “Sweetness (sweetening potency)” value is 40000 times the sweetness of sugar and the sweetness potency stood at 40000.

On to `COC(=O)[C@H](Cc1ccccc1)NC(=O)[C@H](CC(=O)O)NCCC(C)(C)c1ccc(O)c(O)c1` [Compound 23, N-[N-[3-(3,4-dihydroxyphenyl)-3-mehylbutyl]-L-α-aspartyl]-L-phenylalanine 1-methyl ester], for which, in experiment [1], the “Sweetness (sweetening potency)” value is listed as 50000 times the sweetness of sugar and the sweetness potency is 50000.

As for `COC(=O)[C@H](Cc1ccccc1)NC(=O)[C@H](CC(=O)O)NCCC(C)(C)C` [N-[N-(3,3-dimethylbutyl)-L-α-aspartyl]-L-phenylalanine 1-methyl ester, reference compound], the sweetening potency in experiment [2] was 10,000 times that of sucrose; in experiment [2] (listed as N-[N-(3,3-dimethylbutyl)-L-α-aspartyl]-L-phenylalanine 1-methylester), 10000 times that of sucrose.

Consider `COC(=O)[C@H](Cc1ccc(O)cc1)NC(=O)[C@H](CC(=O)O)NCCC(C)(C)C` [N-[N-(3,3-dimethylbutyl)-L-α-aspartyl]-L-tyrosine 1-methyl ester], for which the sweetening potency in experiment [2] is 4,000 times that of sucrose; in experiment [2] (listed as N-[N-(3,3-dimethylbutyl)-L-α-aspartyl]-L-tyrosine 1-methylester), 4000 times that of sucrose.
